Test results from US12195462B2, “Organic compound” (INTRA-CELLULAR THERAPIES, INC., priority 2018, dated 2025).

Columns and labels:
SERT = SERT (Homo sapiens (Human), UniProt P31645); assay: Binding, SERT
[1] = test system: patients with acute exacerbated schizophrenia; assay: Clinical studies of patients with acute exacerbated schizophrenia; format: in vivo; conditions: once daily 60 mg P.O., up to 28 days
Description: Social avoidance can be a critical and debilitating symptom in patients suffering from anxiety disorders, especially social anxiety disorder, as well as in patients suffering from traumatic anxiety disorders. Social avoidance is often one of the key determinants of whether a person with a severe anxiety disorder is capable of maintaining familial relationships or employment relationships. […] Negative symptoms of schizophrenia can be divided into two categories: emotional experience (e.g., emotional withdrawal, passive social withdrawal, active social avoidance) and emotional expression (e.g., blunted effect, poor rapport, lack of spontaneity, and motor retardation). […] These are the symptoms that are most highly correlated with interpersonal functioning.

Mu opiate receptor = Mu opiate receptor (Homo sapiens (Human), UniProt P35372); assay: Receptor binding, Mu opiate receptor
Chain of Mu opiate receptor (P35372 whole entry): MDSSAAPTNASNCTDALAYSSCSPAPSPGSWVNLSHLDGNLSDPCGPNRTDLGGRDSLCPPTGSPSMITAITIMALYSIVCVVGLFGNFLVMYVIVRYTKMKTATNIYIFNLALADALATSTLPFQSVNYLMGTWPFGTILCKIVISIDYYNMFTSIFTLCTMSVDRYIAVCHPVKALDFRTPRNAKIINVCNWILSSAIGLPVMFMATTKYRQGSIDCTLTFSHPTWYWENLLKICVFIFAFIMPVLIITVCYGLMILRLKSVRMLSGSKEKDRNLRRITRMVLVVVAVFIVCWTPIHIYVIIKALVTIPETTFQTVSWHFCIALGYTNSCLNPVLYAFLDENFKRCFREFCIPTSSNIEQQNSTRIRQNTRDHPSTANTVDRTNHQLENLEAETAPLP

[2] = Rat PK study of the compound of Example 2; format: in vivo
Description: (§1) Surgically modified rats are housed one per cage, and supplied with water and a commercial rodent diet ad libitum prior to study initiation. Food is withheld from the animals for a minimum of twelve hours before and during the study, until four hours post-dose, at which time food is returned. Animals are dosed IV, SC and PO, and blood samples are collected following the study design in the following table. Blood samples (˜0.25 mL) are collected via JVC or tail vein, placed into chilled blood collection tubes containing sodium heparin as the anticoagulant, and kept on ice until centrifugation. Blood samples are then centrifuged at a temperature of 2 to 8° C., at 3,000 g, for 5 minutes. Drug levels in the plasma samples are quantified via HPLC with MS/MS detection. Pharmacokinetic parameters based on the group geomean concentration versus time data, are calculated using a noncompartmental pharmaceutical data analysis software PK Solutions 2.0 (Summit Research Services, Montrose, Colo.).
This study is performed according to the same procedure as outlined in Example 5a, with the blood samples collected as shown in the table below.

[3] = Rat PK studies of the compound of Example 3; conditions: Study One, IV 1 mg/kg
[4] = test system: patients with major depressive episodes; conditions: 40-minute infusion, total dose 0.5 mg/kg, after 24 hours; cited from earlier work
human D2S receptor [5] = biological target: T1, human D2S receptor (Homo sapiens (Human), UniProt P14416); assay: Cell-based functional cAMP assay, agonist signaling (inhibition of forskolin-stimulated cAMP)
T1 sequence (P14416 other isoform, or with tags, fused parts or gaps): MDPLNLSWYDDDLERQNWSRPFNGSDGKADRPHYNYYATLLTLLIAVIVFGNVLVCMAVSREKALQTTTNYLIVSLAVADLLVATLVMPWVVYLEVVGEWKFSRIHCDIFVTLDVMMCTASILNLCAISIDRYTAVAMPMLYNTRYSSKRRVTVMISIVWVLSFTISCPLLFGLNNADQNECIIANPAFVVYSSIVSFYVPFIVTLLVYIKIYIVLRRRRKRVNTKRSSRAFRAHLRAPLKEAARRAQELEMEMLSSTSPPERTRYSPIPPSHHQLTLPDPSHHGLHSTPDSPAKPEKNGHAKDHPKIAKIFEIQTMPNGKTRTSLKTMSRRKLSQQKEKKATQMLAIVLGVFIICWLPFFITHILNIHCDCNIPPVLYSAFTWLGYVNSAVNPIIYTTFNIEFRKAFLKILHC

[6] = Rat PK study of the compound of Example 1; format: in vivo
Description: as §1

human D2S receptor [7] = biological target: T1, human D2S receptor; assay: Cell-based functional cAMP assay, antagonist signaling (reversal of quinpirole inhibition)

Chain of SERT (P31645 whole entry): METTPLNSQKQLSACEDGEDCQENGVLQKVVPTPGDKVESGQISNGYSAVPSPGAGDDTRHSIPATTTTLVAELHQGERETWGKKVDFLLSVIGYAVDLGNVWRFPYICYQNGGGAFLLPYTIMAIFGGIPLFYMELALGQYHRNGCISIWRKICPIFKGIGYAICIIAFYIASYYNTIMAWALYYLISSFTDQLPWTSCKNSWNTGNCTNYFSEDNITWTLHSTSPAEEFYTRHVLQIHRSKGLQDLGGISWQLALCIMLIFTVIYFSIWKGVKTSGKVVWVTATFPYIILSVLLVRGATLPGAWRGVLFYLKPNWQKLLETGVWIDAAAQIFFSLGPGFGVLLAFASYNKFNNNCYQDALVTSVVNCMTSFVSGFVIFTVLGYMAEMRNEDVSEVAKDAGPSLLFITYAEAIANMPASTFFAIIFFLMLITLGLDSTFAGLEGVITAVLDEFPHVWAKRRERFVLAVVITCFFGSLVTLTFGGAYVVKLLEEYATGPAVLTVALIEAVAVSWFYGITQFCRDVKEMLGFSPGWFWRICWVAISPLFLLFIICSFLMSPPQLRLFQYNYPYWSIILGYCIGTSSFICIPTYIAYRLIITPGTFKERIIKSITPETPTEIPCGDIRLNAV

In the case of `CN1CCN2c3c(cccc31)[C@@H]1CN(CCCC(=O)c3ccc(F)cc3)CC[C@@H]12` [Formula B, 4-((6bR,10aS)-3-methyl-2,3,6b,9,10,10a-hexahydro-1H-pyrido-[3′,4′:4,5]-pyrrolo[1,2,3-de]quinoxalin-8-(7H)-yl)-1-(4-fluorophenyl)-1-butanone], the “SERT activity (in words)” value (SERT) is reported as “very strong SERT antagonist”, the “symptoms of emotional experience compared to placebo” value [1] is reported as “significant and unexpected improvement in symptoms of emotional experience” and the “mu-opiate activity (in words)” value (Mu opiate receptor) is reported as “no mu-opiate activity”. The Ki (Mu opiate receptor; Mu opiate receptor, read-out: Ki (nM) or maximum inhibition) was > 10000 nM, the “glutamatergic neurotransmission (NMDA and AMPA receptor conductance)” value (rat mPFC slices) was “enhances glutamatergic neurotransmission” and the t-1/2 ([2]; IV 1 mg/kg) was 1.4 h. The AUC ([2]; plasma, IV 1 mg/kg) was 231 ng·h/mL, the bioavailability ([2]; plasma, IV 1 mg/kg) was 100% and the concentration at 30 min ([2]; plasma, IV 1 mg/kg) was 92.5 ng/mL. It also gave a concentration at 6 h ([2]; plasma, IV 1 mg/kg) of 3.1 ng/mL, a concentration at 12 h ([2]; plasma, IV 1 mg/kg) of 0.5 ng/mL and an AUC ([2]; plasma, PO 10 mg/kg) of 56 ng·h/mL. For the same compound, the Cmax ([2]; plasma, PO 10 mg/kg) was 13.8 ng/mL, the bioavailability ([2]; plasma, PO 10 mg/kg) was 2% and the concentration at 30 min ([2]; plasma, PO 10 mg/kg) was 12.2 ng/mL. The concentration at 1 h ([2]; plasma, PO 10 mg/kg) was 13.8 ng/mL, the concentration at 6 h ([2]; plasma, PO 10 mg/kg) was 1.5 ng/mL and the concentration at 12 h ([2]; plasma, PO 10 mg/kg) was 0.3 ng/mL. For the same compound, the AUC ([2]; plasma, SC 45 mg/kg) was 7630 ng·h/mL, the Cmax ([2]; plasma, SC 45 mg/kg) was 747 ng/mL and the bioavailability ([2]; plasma, SC 45 mg/kg) was 73%. The concentration at 30 min ([2]; plasma, SC 45 mg/kg) was 705 ng/mL, the concentration at 1 h ([2]; plasma, SC 45 mg/kg) was 700 ng/mL and the concentration at 6 h ([2]; plasma, SC 45 mg/kg) was 498 ng/mL. For the same compound, the concentration at 12 h ([2]; plasma, SC 45 mg/kg) was 168 ng/mL and the concentration at 24 h ([2]; plasma, SC 45 mg/kg) was 12.3 ng/mL.

With `O=C1CN2c3c(cccc3[C@@H]3CN(CCCOc4ccc(F)cc4)CC[C@@H]32)N1` [Formula A, (6bR,10aS)-8-(3-(4-fluorophenoxy)propyl)-6b,7,8,9,10,10a-hexahydro-1H-pyrido[3′,4′:4,5]pyrrolo[1,2,3-de]quinoxalin-2(3H)-one] the “SERT activity (in words)” value (SERT) was “relatively weak SERT antagonist”, the “mu-opiate activity (in words)” value (Mu opiate receptor) was “very strong mu-opiate antagonist” and the t-1/2 [3] was 1.1 h.

In the case of `CNC1(c2ccccc2Cl)CCCCC1=O` (centres unmarked) [ketamine], the “ratings on the Hamilton Depression Rating Scale (HDRS) compared to placebo” value [4] is listed as “significantly improved ratings”.

With `CN1C(=O)CN2c3c(cccc31)[C@@H]1CN(CCCOc3ccc(F)cc3)CC[C@@H]12` [Compound 1, (6bR,10aS)-8-(3-(4-fluorophenoxy)propyl)-3-methyl-6b,7,8,9,10,10a-hexahydro-1H-pyrido[3′,4′:4,5]pyrrolo[1,2,3-de]quinoxalin-2(3H)-one] the “agonist activity at the D2S receptor (in words)” value (human D2S receptor [5]) was “no detectable agonist activity”, the “Agonist EC50” value (human D2S receptor [5]; CHO-K1 hD2S, 10 μM forskolin) was “no activity” and the t-1/2 ([6]; IV 1 mg/kg) was 1.0 h. The AUC ([6]; plasma, IV 1 mg/kg) was 270 ng·h/mL, the Cmax ([6]; plasma, IV 1 mg/kg) was 505 ng/mL and the bioavailability ([6]; plasma, IV 1 mg/kg) was 100%. The concentration at 30 min ([6]; plasma, IV 1 mg/kg) was 116 ng/mL, the concentration at 1 h ([6]; plasma, IV 1 mg/kg) was 70 ng/mL and the concentration at 6 h ([6]; plasma, IV 1 mg/kg) was 1.6 ng/mL. The AUC ([6]; plasma, PO 1 mg/kg) was 22.6 ng·h/mL, the Cmax ([6]; plasma, PO 1 mg/kg) was 5 ng/mL and the bioavailability ([6]; plasma, PO 1 mg/kg) was 10%. It also gave a concentration at 30 min ([6]; plasma, PO 1 mg/kg) of 4.2 ng/mL, a concentration at 1 h ([6]; plasma, PO 1 mg/kg) of 2.9 ng/mL and a concentration at 6 h ([6]; plasma, PO 1 mg/kg) of 1.4 ng/mL. The AUC ([6]; plasma, SC 1 mg/kg) was 247 ng·h/mL, the Cmax ([6]; plasma, SC 1 mg/kg) was 34 ng/mL and the bioavailability ([6]; plasma, SC 1 mg/kg) was 90%. The concentration at 30 min ([6]; plasma, SC 1 mg/kg) was 23.6 ng/mL, the concentration at 1 h ([6]; plasma, SC 1 mg/kg) was 28.1 ng/mL and the concentration at 6 h ([6]; plasma, SC 1 mg/kg) was 12.8 ng/mL. For the same compound, the concentration at 24 h ([6]; plasma, SC 1 mg/kg) was 1.3 ng/mL and the “antagonist activity at the D2S receptor (in words)” value (human D2S receptor [7]) was “antagonist activity”.
